From paper PMC7281280, “Is the Way to Fight Cancer Paved with Gold? Metal-Based Carbene Complexes with Multiple and Fascinating Biological Features” (Pharmaceuticals, 2020)

How the values were obtained:
[1] = test system: MCF-10A human mammary epithelial cells; assay: MTT cell viability, normal MCF-10A; format: cell-based; settings: 72 h, mean ± SD
Procedure: (§1) The six cell lines used in this work (MCF-7, MDA-MB-231, HeLa, […], MCF-10A and Hek-293) were purchased from American Type Culture Collection (ATCC, Manassas, VA, USA). MCF-7 human breast cancer cells, estrogen receptor (ER)-positive, were maintained in Dulbecco’s modified Eagle’s medium/nutrient mixture Ham F-12 (DMEM/F12), supplemented with 10% fetal bovine serum (FBS) and 100 U mL^−1 penicillin/streptomycin. MCF-10A human mammary epithelial cells, were cultured in DMEM/F12 medium, supplemented with 5% horse serum (HS, Thermo Fisher Scientific, Milan, Italy), 100 U mL^−1 penicillin/streptomycin, […] hydrocortisone, 20 ng mL^−1 human epidermal growth factor (hEGF), […] insulin, and […] cholera enterotoxin (Sigma–Aldrich, Milan, Italy). MDA-MB-231 human breast cancer cells, known as triple-negative cells (i.e., not overexpressing human epidermal growth factor receptor 2 (HER2), estrogen and progesterone receptors), were cultured in DMEM/F12 supplemented with 5% FBS, 1% L-glutamine and 100 U mL^−1 penicillin/streptomycin. HeLa human epithelial cervix carcinoma cells, estrogen receptor (ER)-negative, and […] human endometrial adenocarcinoma cells, estrogen receptor (ER)-positive, were maintained in minimum essential Eagle’s Medium (MEM), supplemented with 10% FBS, 1% L-glutamine, 100 U mL^−1 penicillin/streptomycin and 1% Non-Essential Amino Acids (NEAA). Hek-293 human embryonic kidney epithelial cells were cultured in DMEM high glucose (4.5 g L^−1), supplemented with 10% FBS, 1% L-glutamine and 100 U mL^–1 penicillin/streptomycin. Cells were maintained at 37 °C in a humidified atmosphere of 95% air and 5% CO2 and periodically screened for contamination.
(§2) Cell viability has been determined using the 3-(4,5-dimethylthiazol-2-y1)-2,5-diphenyltetrazolium bromide (MTT, Sigma–Aldrich, Milan, Italy) assay. Cells have been seeded on 48-well plates and grown in complete medium. Before being treated, cells have been starved in serum free medium for 24 h for allowing cell cycle synchronization. […] Data are representative of three independent experiments; standard deviations (SD) have been shown.

[2] = test system: MDA-MB-231 cells; assay: Muse cell cycle assay; settings: at IC50, 72 h
[3] = test system: caspases 3/7; assay: Caspase-Glo assay, caspases 3/7; settings: 5 μM, 24 h, MDA-MB-231 cells
[4] = test system: MDA-MB-231 human breast cancer cells; assay: MTT cell viability, MDA-MB-231; format: cell-based; settings: 72 h, mean ± SD
Procedure: as §1, §2

[5] = test system: HeLa human epithelial cervix carcinoma cells; assay: MTT cell viability, HeLa; format: cell-based; settings: 72 h, mean ± SD
Procedure: as §1, §2

[6] = target: T1, human topoisomerase II (hTopo II) (Homo sapiens, UniProt P11388); assay: Human topoisomerase II decatenation assay; format: biochemical; settings: 1 μM
T1 construct: purchased topoGEN, Port Orange, FL, USA
T1 sequence (P11388 whole entry): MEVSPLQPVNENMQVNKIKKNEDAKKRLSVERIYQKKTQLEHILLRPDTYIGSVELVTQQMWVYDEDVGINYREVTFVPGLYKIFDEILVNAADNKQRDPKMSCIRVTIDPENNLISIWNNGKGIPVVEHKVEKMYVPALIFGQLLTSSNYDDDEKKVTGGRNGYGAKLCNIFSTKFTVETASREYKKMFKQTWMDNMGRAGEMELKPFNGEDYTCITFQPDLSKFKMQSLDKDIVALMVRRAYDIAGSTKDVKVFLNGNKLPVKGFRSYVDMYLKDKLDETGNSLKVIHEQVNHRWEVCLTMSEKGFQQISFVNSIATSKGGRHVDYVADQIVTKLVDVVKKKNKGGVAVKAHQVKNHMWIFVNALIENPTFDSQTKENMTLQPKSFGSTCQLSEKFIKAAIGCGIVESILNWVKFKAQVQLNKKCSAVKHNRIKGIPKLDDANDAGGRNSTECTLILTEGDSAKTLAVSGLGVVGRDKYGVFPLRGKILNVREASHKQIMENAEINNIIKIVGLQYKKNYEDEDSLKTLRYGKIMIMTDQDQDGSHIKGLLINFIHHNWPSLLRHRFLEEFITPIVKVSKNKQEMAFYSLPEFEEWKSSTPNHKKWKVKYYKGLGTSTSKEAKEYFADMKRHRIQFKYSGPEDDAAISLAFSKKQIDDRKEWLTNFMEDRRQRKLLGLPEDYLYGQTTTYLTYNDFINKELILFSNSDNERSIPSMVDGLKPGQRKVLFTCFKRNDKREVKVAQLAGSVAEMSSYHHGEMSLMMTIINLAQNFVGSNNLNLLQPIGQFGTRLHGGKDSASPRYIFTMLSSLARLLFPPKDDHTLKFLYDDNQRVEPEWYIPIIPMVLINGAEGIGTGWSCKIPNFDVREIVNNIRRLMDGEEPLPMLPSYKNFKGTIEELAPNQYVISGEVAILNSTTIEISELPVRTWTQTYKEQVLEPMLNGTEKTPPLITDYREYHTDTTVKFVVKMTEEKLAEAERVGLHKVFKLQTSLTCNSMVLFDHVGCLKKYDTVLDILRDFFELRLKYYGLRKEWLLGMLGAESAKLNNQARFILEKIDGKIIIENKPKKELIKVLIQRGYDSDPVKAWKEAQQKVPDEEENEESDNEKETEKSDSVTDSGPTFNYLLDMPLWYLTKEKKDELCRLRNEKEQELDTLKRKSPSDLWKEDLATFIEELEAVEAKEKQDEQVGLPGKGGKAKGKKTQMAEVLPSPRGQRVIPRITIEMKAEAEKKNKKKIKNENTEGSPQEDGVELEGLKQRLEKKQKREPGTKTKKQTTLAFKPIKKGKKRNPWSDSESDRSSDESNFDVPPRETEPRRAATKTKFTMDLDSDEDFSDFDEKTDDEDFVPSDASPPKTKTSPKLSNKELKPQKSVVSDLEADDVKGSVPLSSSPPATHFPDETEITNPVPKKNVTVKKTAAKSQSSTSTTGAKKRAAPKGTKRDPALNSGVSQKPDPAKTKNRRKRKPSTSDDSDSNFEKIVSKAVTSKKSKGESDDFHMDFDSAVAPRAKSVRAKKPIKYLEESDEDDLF
Procedure: Decatenated and linear kDNA (Figure 8, lanes 1 and 2) are used as markers.
hTopo II decatenation assays were performed in a final volume of […], as reported by Iacopetta et al., using […] of kinetoplast DNA (kDNA) (topoGEN, Port Orange, FL, USA), tested compounds and 3 units of hTopo II (topoGEN, Port Orange, FL, USA). The reaction products were loaded in an agarose gel with EB. At the end, the gel was washed with distilled water and analyzed using a UV transilluminator. The experiment was repeated three times.
Lane 1 and 2, decatenated and linear kDNA, respectively.

[7] = test system: MDA-MB-231 cells; assay: Immunofluorescence of microtubules, MDA-MB-231; format: cell-based, human; settings: at IC50 value, 24 h
Procedure: Cells were grown on glass coverslips in full media, then serum-deprived for 24 h and exposed to compounds for 24 h (concentration equal to its IC50 value). Then, the cells after PBS-washed, were fixed with cold methanol (15 min/−20 °C) and incubated with primary antibody, diluted in blocking solution (4 °C/overnight), as previously described. The mouse anti-β-Actin (69879) and the rabbit anti-β tubulin (9104) were purchased from Santa Cruz Biotechnology and used at 1:100 dilution. Coverslips were then washed 3 times with PBS, then fixed cells were incubated with the secondary antibody Alexa Fluor® 568 conjugate goat-anti-mouse and Alexa Fluor® 488 conjugate goat-anti-rabbit (1:500, Thermo Fisher Scientific, Waltham, MA, USA). Nuclei were stained using DAPI (Sigma–Aldrich, Mila, Italy) for 10 min at a concentration of 0.2 μg/mL then washed 3 times with PBS. Fluorescence was detected using a fluorescence microscope (Leica DM 6000). LAS-X software was used to acquire and process all images.
Figure 5 Immunofluorescence studies. […] Panels A: DAPI, excitation/emission wavelength 350 nm/460 nm; panels B: β-tubulin (Alexa Fluor® 488) excitation/emission wavelength 490 nm/515 nm; panels C show a merge. Representative fields are shown.

C[n+]1c(Cl)c(Cl)n(CC(O)c2ccccc2)[c]1[Au-][c]1n(CC(O)c2ccccc2)c(Cl)c(Cl)[n+]1C.[Cl][Au-][Cl] (racemic) [AuL7, bis-[4,5-dichloro-(N-methyl-N’(2-hydroxy-2-phenyl)ethyl-imidazole-2-ylidene)gold(I)]^+[dichloro-gold]^−]
IC50 [1]: > 200 µM | IC50 MCF-10A [1]: inactive | increase of the percentage of cells in G2/M phase vs DMSO control [2]: 33.2% | increase of the percentage of cells in S phase vs DMSO control [2]: 16.1% | caspases 3/7 activity [3]: clear increase | IC50 [4]: 2.1 ± 0.7 µM | IC50 [5]: 31.9 ± 0.5 µM | inhibition of hTopo II decatenation activity [6]: total blockade of hTopoII activity | effect on microtubule network, MDA-MB-231 [7]: vinblastine-like mode of action
